# Assay results published in US9695155B2, “Herbicidal substituted pyrimidinyloxy benzene compounds” (E. I. DU PONT DE NEMOURS AND COMPANY, priority 2013, dated 2017).
# Assays:
# [1] = test system: barnyardgrass; test: Test A preemergence; type: in vivo, Echinochloa crus-galli; settings: for Barnyardgrass plant response rating (0 to 100 scale, 0 is no effect, 100 is complete control): 125 g ai/ha
# In short: (§1)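 Greenhouse pot test, loam/sand soil. Formulation: non-phytotoxic solvent mix plus surfactant. Pre: directed spray onto soil after sowing. Post: plants at 1–2 leaf, 2–10 cm. Rated visually vs untreated controls at ~10 d, 0 (no effect) to 100 (complete control).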
# [2] = test system: pigweed; test: Test A postemergence; type: in vivo, Amaranthus retroflexus
# In short: as §1
# [3] = test system: rice; test: Test B flooded paddy test; type: in vivo, Oryza sativa; settings: Flood, 250 g ai/ha; 0 to 100 scale where 0 is no effect and 100 is complete control
# In short: (§2)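 Seedlings are raised to two leaves, flooded to a depth of 3 cm and dosed by adding the compound to the floodwater. Water level is kept constant, and plants are scored visually versus controls 13–15 days later (0 = no effect, 100 = complete control).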
# [4] = test system: sedge, umbrella; test: Test B flooded paddy test; type: in vivo, Cyperus difformis; settings: Flood, 250 g ai/ha; 0 to 100 scale where 0 is no effect and 100 is complete control
# In short: as §2
# [5] = test system: blackgrass; test: Test C postemergence; type: in vivo, Alopecurus myosuroides; settings: for Plant response rating (0 to 100), Blackgrass: 16 g ai/ha, 0 is no effect, 100 is complete control; for Blackgrass plant response rating: 31 g ai/ha; for Blackgrass plant response rating / Plant response rating, Blackgrass: scale 0 to 100 (0 no effect, 100 complete control)
# In short: (§3)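 Seeds are planted in blended loam soil and sand and treated preemergence, while seedlings in a peat moss/vermiculite medium receive postemergence sprays at 2 to 18 cm height. All plants stay in the greenhouse for 13 to 15 days before visual comparison with controls on a 0–100 scale.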
# [6] = test system: Italian ryegrass; test: Test C postemergence; type: in vivo, Lolium multiflorum; settings: for Plant response rating (0 to 100), Ryegrass, Italian: 16 g ai/ha, 0 is no effect, 100 is complete control; for Ryegrass, Italian plant response rating: 31 g ai/ha; for Ryegrass, Italian plant response rating / Plant response rating, Ryegrass, Italian: scale 0 to 100 (0 no effect, 100 complete control)
# In short: as §3
# [7] = test system: galium; test: Test C postemergence; type: in vivo, Galium aparine; settings: for Plant response rating (0 to 100), Galium: 16 g ai/ha, 0 is no effect, 100 is complete control; for Galium plant response rating: 31 g ai/ha; for Galium plant response rating / Plant response rating, Galium: scale 0 to 100 (0 no effect, 100 complete control)
# In short: as §3
# [8] = test system: large (Lg) crabgrass; test: Test C postemergence; type: in vivo, Digitaria sanguinalis; settings: for Plant response rating (0 to 100), Crabgrass, Large: 16 g ai/ha, 0 is no effect, 100 is complete control; for Crabgrass, Large plant response rating: 31 g ai/ha; for Crabgrass, Large plant response rating / Plant response rating, Crabgrass, Large: scale 0 to 100 (0 no effect, 100 complete control)
# In short: as §3
# [9] = test system: lambsquarters; test: Test C postemergence; type: in vivo, Chenopodium album; settings: for Plant response rating (0 to 100), Lambsquarters: 16 g ai/ha, 0 is no effect, 100 is complete control; for Lambsquarters plant response rating: 31 g ai/ha; for Lambsquarters plant response rating / Plant response rating, Lambsquarters: scale 0 to 100 (0 no effect, 100 complete control)
# In short: as §3
# [10] = test system: yellow nutsedge; test: Test C postemergence; type: in vivo, Cyperus esculentus; settings: for Plant response rating (0 to 100), Nutsedge, Yellow: 16 g ai/ha, 0 is no effect, 100 is complete control; for Nutsedge, Yellow plant response rating: 31 g ai/ha; for Nutsedge, Yellow plant response rating / Plant response rating, Nutsedge, Yellow: scale 0 to 100 (0 no effect, 100 complete control)
# In short: as §3
# [11] = test system: ragweed; test: Test C postemergence; type: in vivo, Ambrosia elatior; settings: for Plant response rating (0 to 100), Ragweed: 16 g ai/ha, 0 is no effect, 100 is complete control; for Ragweed plant response rating: 31 g ai/ha; for Ragweed plant response rating / Plant response rating, Ragweed: scale 0 to 100 (0 no effect, 100 complete control)
# In short: as §3
# [12] = test system: soybean; test: Test C postemergence; type: in vivo, Glycine max; settings: for Plant response rating (0 to 100), Soybean: 16 g ai/ha, 0 is no effect, 100 is complete control; for Soybean plant response rating: 31 g ai/ha; for Soybean plant response rating / Plant response rating, Soybean: scale 0 to 100 (0 no effect, 100 complete control)
# In short: as §3
# [13] = test system: barnyardgrass; test: Test C postemergence; type: in vivo, Echinochloa crus-galli; settings: for Plant response rating (0 to 100), Barnyardgrass: 16 g ai/ha, 0 is no effect, 100 is complete control; for Barnyardgrass plant response rating: 31 g ai/ha; for Barnyardgrass plant response rating / Plant response rating, Barnyardgrass: scale 0 to 100 (0 no effect, 100 complete control)
# In short: as §3
# [14] = 500 g ai/ha, 0 to 100 scale where 0 is no effect and 100 is complete control
# [15] = 125 g ai/ha, 0 to 100 scale, 0 no effect, 100 complete control
# [16] = postemergence, visual rating, 13 to 15 days
# [17] = 125 g ai/ha, postemergence, visual rating
# [18] = Postemergence, 62 g ai/ha, 13 to 15 days
structure (smiles),measurement,setting,value
N#Cc1cnn(-c2c(Oc3ncc(F)cn3)cccc2C(F)F)c1 [Compound 240],"Barnyardgrass plant response rating (0 to 100 scale, 0 is no effect, 100 is complete control)",[1],90
same,Barnyardgrass plant response rating,[1]; [14],100
same,"Plant response rating, Pigweed",[2]; [15],100
same,"Plant response rating, Pigweed",[2]; [14],100
same,"Plant response rating, Rice",[3],0
same,"Plant response rating, Sedge, Umbrella",[4],30
same,"Plant response rating (0 to 100), Blackgrass",[5]; postemergence,0
same,Blackgrass plant response rating,[5]; [16],0
same,"Plant response rating, Blackgrass",[5]; [17],5
same,"Plant response rating, Blackgrass",[5]; [18],0
same,"Plant response rating (0 to 100), Ryegrass, Italian",[6]; postemergence,0
same,"Ryegrass, Italian plant response rating",[6]; [16],0
same,"Plant response rating, Ryegrass, Italian",[6]; [17],0
same,"Plant response rating, Ryegrass, Italian",[6]; [18],0
same,"Plant response rating (0 to 100), Galium",[7]; postemergence,35
same,Galium plant response rating,[7]; [16],40
same,"Plant response rating, Galium",[7]; [17],70
same,"Plant response rating, Galium",[7]; [18],55
same,"Plant response rating (0 to 100), Crabgrass, Large",[8]; postemergence,10
same,"Crabgrass, Large plant response rating",[8]; [16],5
same,"Plant response rating, Crabgrass, Large",[8]; [17],20
same,"Plant response rating, Crabgrass, Large",[8]; [18],5
same,"Plant response rating (0 to 100), Lambsquarters",[9]; postemergence,15
same,Lambsquarters plant response rating,[9]; [16],45
same,"Plant response rating, Lambsquarters",[9]; [17],90
same,"Plant response rating, Lambsquarters",[9]; [18],75
same,"Plant response rating (0 to 100), Nutsedge, Yellow",[10]; postemergence,0
same,"Nutsedge, Yellow plant response rating",[10]; [16],0
same,"Plant response rating, Nutsedge, Yellow",[10]; [17],5
same,"Plant response rating, Nutsedge, Yellow",[10]; [18],0
same,"Plant response rating (0 to 100), Ragweed",[11]; postemergence,35
same,Ragweed plant response rating,[11]; [16],40
same,"Plant response rating, Ragweed",[11]; [17],75
same,"Plant response rating, Ragweed",[11]; [18],55
same,"Plant response rating (0 to 100), Soybean",[12]; postemergence,30
same,Soybean plant response rating,[12]; [16],40
same,"Plant response rating, Soybean",[12]; [17],75
same,"Plant response rating, Soybean",[12]; [18],60
same,"Plant response rating (0 to 100), Barnyardgrass",[13]; postemergence,0
same,Barnyardgrass plant response rating,[13]; [16],10
same,"Plant response rating, Barnyardgrass",[13]; [17],20
same,"Plant response rating, Barnyardgrass","[13]; Postemergence, 62 g ai/ha",10
FC(F)Oc1cnn(-c2c(Cl)cccc2Oc2ncc(Cl)cn2)c1 [Compound 258],"Plant response rating, Barnyardgrass","[1]; 31 g ai/ha, 0 to 100 scale where 0 is no effect and 100 is complete control, visual, approximately 10 days",50
same,"Barnyardgrass plant response rating (0 to 100 scale, 0 is no effect, 100 is complete control)",[1],90
same,"Plant response rating, Pigweed","[2]; 31 g ai/ha, 0 to 100 scale, 0 no effect, 100 complete control",80
same,"Plant response rating, Pigweed",[2]; [15],100
same,"Plant response rating, Rice",[3],30
same,"Plant response rating, Sedge, Umbrella",[4],95
same,"Plant response rating (0 to 100), Blackgrass",[5]; postemergence,0
same,Blackgrass plant response rating,[5]; [16],5
same,"Plant response rating, Blackgrass",[5]; [17],10
same,"Plant response rating, Blackgrass",[5]; [18],5
same,"Plant response rating (0 to 100), Ryegrass, Italian",[6]; postemergence,0
same,"Ryegrass, Italian plant response rating",[6]; [16],0
same,"Plant response rating, Ryegrass, Italian",[6]; [17],30
same,"Plant response rating, Ryegrass, Italian",[6]; [18],0
same,"Plant response rating (0 to 100), Galium",[7]; postemergence,85
same,Galium plant response rating,[7]; [16],90
same,"Plant response rating, Galium",[7]; [17],100
same,"Plant response rating, Galium",[7]; [18],95
same,"Plant response rating (0 to 100), Crabgrass, Large",[8]; postemergence,5
same,"Crabgrass, Large plant response rating",[8]; [16],5
same,"Plant response rating, Crabgrass, Large",[8]; [17],15
same,"Plant response rating, Crabgrass, Large",[8]; [18],10
same,"Plant response rating (0 to 100), Lambsquarters",[9]; postemergence,50
same,Lambsquarters plant response rating,[9]; [16],65
same,"Plant response rating, Lambsquarters",[9]; [17],90
same,"Plant response rating, Lambsquarters",[9]; [18],90
same,"Plant response rating (0 to 100), Nutsedge, Yellow",[10]; postemergence,0
same,"Nutsedge, Yellow plant response rating",[10]; [16],0
same,"Plant response rating, Nutsedge, Yellow",[10]; [17],5
same,"Plant response rating, Nutsedge, Yellow",[10]; [18],5
same,"Plant response rating (0 to 100), Ragweed",[11]; postemergence,25
same,Ragweed plant response rating,[11]; [16],50
same,"Plant response rating, Ragweed",[11]; [17],75
same,"Plant response rating, Ragweed",[11]; [18],50
same,"Plant response rating (0 to 100), Soybean",[12]; postemergence,50
same,Soybean plant response rating,[12]; [16],75
same,"Plant response rating, Soybean",[12]; [17],95
same,"Plant response rating, Soybean",[12]; [18],70
same,"Plant response rating (0 to 100), Barnyardgrass",[13]; postemergence,5
same,Barnyardgrass plant response rating,[13]; [16],10
same,"Plant response rating, Barnyardgrass",[13]; [17],10
same,"Plant response rating, Barnyardgrass",[13]; [18],10
